# Experimental data taken from patent publication US20250304563A1, “ACTIVATORS OF EFFECTOR T CELLS” (Orum Therapeutics, Inc., priority 2022, published 2025).
# Molecular target: Cbl-b (36-427 aa truncated form, N-terminus Avi-tag) (Homo sapiens (Human), UniProt Q13191)
# Assay: Cbl-b binding: TR-FRET displacement of BODIPY-FL probe
# Experimental: Compounds were assessed for binding activity to Cbl-b by their ability to compete with and displace a probe comprised of BODIPY-FL fluorophore conjugated to a Cbl-b inhibitor (see Example 54 in WO2020264398). In the assay, a 36-427 aa truncated form of Cbl-b with an N-terminus Avi-tag was incubated 20 mM HEPES pH 7.5, 150 mM NaCl, 0.01% Triton X-100, 0.1% BSA, 0.5 mM TCEP buffer with streptavidin-terbium (Cisbio). After one hour of incubation at room temperature, 1 uM each of fluorescent probe and compound were combined with the reaction mixture. Compounds with Cbl-b binding activity competitively displace the fluorophore tagged inhibitor thereby disrupting the FRET signal from the terbium-BODIPY-FL complex. The reaction mixtures were incubated for one additional hour at room temperature to allow for competition between inhibitor and candidate compounds to occur. The time resolved FRET (TR-FRET) signal was then read at 520/620 […] (excitation/emission) using a Spectramax M5e plate reader (Molecular Devices) to measure probe displacement. Compounds with Cbl-b binding activity had decreased FRET signal owing to disruption of the terbium-BODIPY-FL FRET complex. Standard methods in PRISM were used to calculate the compound IC50 values from the experimental data.
# Chain of Cbl-b (36-427 aa truncated form, N-terminus Avi-tag) (Q13191 36-427): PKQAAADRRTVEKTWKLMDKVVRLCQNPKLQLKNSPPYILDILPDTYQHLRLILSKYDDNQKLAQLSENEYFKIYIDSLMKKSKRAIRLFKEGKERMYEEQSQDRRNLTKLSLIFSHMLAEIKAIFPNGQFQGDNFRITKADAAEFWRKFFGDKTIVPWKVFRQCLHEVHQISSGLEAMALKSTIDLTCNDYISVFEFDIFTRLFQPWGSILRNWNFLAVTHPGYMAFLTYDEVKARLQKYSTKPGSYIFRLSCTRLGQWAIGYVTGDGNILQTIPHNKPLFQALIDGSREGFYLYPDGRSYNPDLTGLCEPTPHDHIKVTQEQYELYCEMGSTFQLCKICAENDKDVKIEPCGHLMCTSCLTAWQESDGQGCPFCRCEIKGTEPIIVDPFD
row,Compound,IC50 [µM]
1,"CCSc1cc(C2(Cc3nncn3C)COC2)cc(N2Cc3c(C#N)cc(CN4CCC[C@H](C)C4)cc3C2=O)n1 [Compound 144, 2-[6-(ethylsulfanyl)-4-{3-[(4-methyl-1,2,4-triazol-3-yl)methyl]oxetan-3-yl}pyridin-2-yl]-6-{[(3S)-3-methylpiperidin-1-yl]methyl}-1-oxo-3H-isoindole-4-carbonitrile; trifluoroacetic acid]",0.00501 to 0.02
2,"CCSc1cc(C2(Cc3nncn3C)COC2)cc(N2Cc3c(C(N)=O)cc(CN4CCC[C@H](C)C4)cc3C2=O)n1 [Compound 145, 2-[6-(ethylsulfanyl)-4-{3-[(4-methyl-1,2,4-triazol-3-yl)methyl]oxetan-3-yl}pyridin-2-yl]-6-{[(3S)-3-methylpiperidin-1-yl]methyl}-1-oxo-3H-isoindole-4-carboxamide]",0.00501 to 0.02
3,"CCNc1cc(C2(Cc3nncn3C)COC2)cc(N2Cc3cc(CN4CCC[C@H](C)C4)sc3C2=O)n1 [Compound 149, 5-[6-(ethylamino)-4-{3-[(4-methyl-1,2,4-triazol-3-yl)methyl]oxetan-3-yl}pyridin-2-yl]-2-{[(3S)-3-methylpiperidin-1-yl]methyl}-4H-thieno[2,3-c]pyrrol-6-one]",0.02 to 0.1
4,"C#CCOCC(c1cc2c(c(C(F)(F)F)c1)CN(c1cccc(C3(c4nncn4C)CC(C)C3)c1)C2=O)N1CCC[C@H](C)C1 (stereo partly drawn) [Compound 151, 6-{1-[(3S)-3-methylpiperidin-1-yl]-2-(prop-2-yn-1-yloxy)ethyl}-2-{3-[(1r,3s)-3-methyl-1-(4-methyl-1,2,4-triazol-3-yl)cyclobutyl]phenyl}-4-(trifluoromethyl)-3H-isoindol-1-one]",0.1 to 1
5,"Cn1cnnc1CC1(c2cc(NCCC#N)nc(N3Cc4c(cc(CN5CCC(O)(C6CC6)CC5)cc4C(F)(F)F)C3=O)c2)COC1 [Compound 155, 3-[(6-{6-[(4-cyclopropyl-4-hydroxypiperidin-1-yl)methyl]-1-oxo-4-(trifluoromethyl)-3H-isoindol-2-yl}-4-{3-[(4-methyl-1,2,4-triazol-3-yl)methyl]oxetan-3-yl}pyridin-2-yl)amino]propanenitrile]",0.001 to 0.005
6,"C[C@H](Cc1nncn1C)c1cccc(NC(=O)c2ccc(C=O)c(C3CC3)n2)c1 [Compound 156, 6-cyclopropyl-5-formyl-N-{3-[(2R)-1-(4-methyl-1,2,4-triazol-3-yl)propan-2-yl]phenyl}pyridine-2-carboxamide]",0.02 to 0.1
7,"Cn1cnnc1CC1(c2cc(NCCC#N)nc(N3Cc4c(cc(C=O)cc4C(F)(F)F)C3=O)c2)COC1 [Compound 157, 3-({6-[6-formyl-1-oxo-4-(trifluoromethyl)-3H-isoindol-2-yl]-4-{3-[(4-methyl-1,2,4-triazol-3-yl)methyl]oxetan-3-yl}pyridin-2-yl}amino)propanenitrile]",0.02 to 0.1
8,"CSc1cc(CN2CCC[C@H](C)C2)cc2c1CN(c1cc(C3(Cc4nncn4C)COC3)cc(NCCN=[N+]=[N-])n1)C2=O [Compound 158, 2-{6-[(2-azidoethyl)amino]-4-{3-[(4-methyl-1,2,4-triazol-3-yl)methyl]oxetan-3-yl}pyridin-2-yl}-6-{[(3S)-3-methylpiperidin-1-yl]methyl}-4-(methylsulfanyl)-3H-isoindol-1-one; trifluoroacetic acid]",0.001 to 0.005
9,"CCNc1cc([C@]2(c3nncn3C)C[C@H](C)C2)cc(N2Cc3c(cc(CN4CCC[C@H](C)C4)cc3S(C)(=O)=O)C2=O)n1 [Compound 172, 2-[6-(ethylamino)-4-[(1r,3s)-3-methyl-1-(4-methyl-1,2,4-triazol-3-yl)cyclobutyl]pyridin-2-yl]-4-methanesulfonyl-6-{[(3S)-3-methylpiperidin-1-yl]methyl}-3H-isoindol-1-one; trifluoroacetic acid]",0.1 to 1

# Second part, the molecule after the results:
row,IC50 [µM],Compound
1,0.02 to 0.1,"CCSc1cc(C2(Cc3nncn3C)COC2)cc(N2Cc3c(C(C)=O)cc(CN4CCC[C@H](C)C4)cc3C2=O)n1 [Compound 159, 4-acetyl-2-[6-(ethylsulfanyl)-4-{3-[(4-methyl-1,2,4-triazol-3-yl)methyl]oxetan-3-yl}pyridin-2-yl]-6-{[(3S)-3-methylpiperidin-1-yl]methyl}-3H-isoindol-1-one; trifluoroacetic acid]"
2,0.001 to 0.005,"Cn1cnnc1CC1(c2cc(NCCC#N)nc(N3Cc4c(cc(CN5CCC6(CC5)CC6CO)cc4C(F)(F)F)C3=O)c2)COC1 (stereo not drawn) [Compound 160, 3-{[6-(6-{[1-(hydroxymethyl)-6-azaspiro[2.5]octan-6-yl]methyl}-1-oxo-4-(trifluoromethyl)-3H-isoindol-2-yl)-4-{3-[(4-methyl-1,2,4-triazol-3-yl)methyl]oxetan-3-yl}pyridin-2-yl]amino}propanenitrile]"
3,0.001 to 0.005,"Cn1cnnc1CC1(c2cc(NCCC#N)nc(N3Cc4c(cc(CN5C[C@H]6CCC(O)C[C@H]6C5)cc4C(F)(F)F)C3=O)c2)COC1 (stereo partly drawn) [Compound 161, 3-{[6-(6-{[(3aR,7aS)-5-hydroxy-octahydroisoindol-2-yl]methyl}-1-oxo-4-(trifluoromethyl)-3H-isoindol-2-yl)-4-{3-[(4-methyl-1,2,4-triazol-3-yl)methyl]oxetan-3-yl}pyridin-2-yl]amino}propanenitrile; trifluoroacetic acid]"
4,0.00501 to 0.02,"CN1CCOC2(CCN(Cc3cc4c(c(C(F)(F)F)c3)CN(c3cc(C5(Cc6nncn6C)COC5)cc(NCCC#N)n3)C4=O)C2)C1 (stereo not drawn) [Compound 163, 3-[(4-{3-[(4-methyl-1,2,4-triazol-3-yl)methyl]oxetan-3-yl}-6-[6-({9-methyl-6-oxa-2,9-diazaspiro[4.5]decan-2-yl}methyl)-1-oxo-4-(trifluoromethyl)-3H-isoindol-2-yl]pyridin-2-yl)amino]propanenitrile]"
5,0.00501 to 0.02,"Cn1cnnc1CC1(c2cc(NCCC#N)nc(N3Cc4c(cc(CN5CC[C@@H](CN6CCOCC6)C5)cc4C(F)(F)F)C3=O)c2)COC1 [Compound 165, 3-[(4-{3-[(4-methyl-1,2,4-triazol-3-yl)methyl]oxetan-3-yl}-6-(6-{[(3R)-3-(morpholin-4-ylmethyl)pyrrolidin-1-yl]methyl}-1-oxo-4-(trifluoromethyl)-3H-isoindol-2-yl)pyridin-2-yl)amino]propanenitrile; trifluoroacetic acid]"
6,0.00501 to 0.02,"CCSc1cc(C2(Cc3nncn3C)COC2)cc(N2Cc3c(C(=O)O)cc(CN4CCC[C@H](C)C4)cc3C2=O)n1 [Compound 166, 2-[6-(ethylsulfanyl)-4-{3-[(4-methyl-1,2,4-triazol-3-yl)methyl]oxetan-3-yl}pyridin-2-yl]-6-{[(3S)-3-methylpiperidin-1-yl]methyl}-1-oxo-3H-isoindole-4-carboxylic acid; trifluoroacetic acid]"
7,0.00501 to 0.02,"CCSc1cc(C2(Cc3nncn3C)COC2)cc(N2Cc3c(cc(CN4CCC[C@H](C)C4)cc3-c3nnn[nH]3)C2=O)n1 [Compound 167, 2-[6-(ethylsulfanyl)-4-{3-[(4-methyl-1,2,4-triazol-3-yl)methyl]oxetan-3-yl}pyridin-2-yl]-6-{[(3S)-3-methylpiperidin-1-yl]methyl}-4-(1H-1,2,3,4-tetrazol-5-yl)-3H-isoindol-1-one]"
8,0.02 to 0.1,"CC1CC(c2cc(NCCN=[N+]=[N-])nc(N3Cc4c(cc(CN5CCC[C@H](C)C5)cc4C(F)(F)F)C3=O)c2)(c2nncn2C)C1 (stereo partly drawn) [Compound 168, 2-{6-[(2-azidoethyl)amino]-4-[(1r,3s)-3-methyl-1-(4-methyl-1,2,4-triazol-3-yl)cyclobutyl]pyridin-2-yl}-6-{[(3S)-3-methylpiperidin-1-yl]methyl}-4-(trifluoromethyl)-3H-isoindol-1-one]"
9,0.001 to 0.005,"C[C@H]1CCCN(Cc2cc(C=O)c3c(c2)C(=O)N(c2cc(C4(Cc5nncn5C)COC4)cc(NCCC#N)n2)C3)C1 [Compound 177, 3-{[6-(4-formyl-6-{[(3S)-3-methylpiperidin-1-yl]methyl}-1-oxo-3H-isoindol-2-yl)-4-{3-[(4-methyl-1,2,4-triazol-3-yl)methyl]oxetan-3-yl}pyridin-2-yl]amino}propanenitrile]"
10,0.1 to 1,"CCNc1cc(C2(c3nncn3C)CC(C)C2)cc(N2Cc3c(cc(CN4CCC[C@H](C)C4)cc3[S+](C)[O-])C2=O)n1 (stereo partly drawn) [Compound 178, 2-[6-(ethylamino)-4-[(1r,3s)-3-methyl-1-(4-methyl-1,2,4-triazol-3-yl)cyclobutyl]pyridin-2-yl]-4-methanesulfinyl-6-{[(3S)-3-methylpiperidin-1-yl]methyl}-3H-isoindol-1-one]"
11,0.1 to 1,"CCNc1cc(C2(Cc3nncn3C)COC2)cc(N2Cc3c(cc(CN4CCC[C@H](C)C4)cc3S(C)(=O)=O)C2=O)n1 [Compound 179, 2-[6-(ethylamino)-4-{3-[(4-methyl-1,2,4-triazol-3-yl)methyl]oxetan-3-yl}pyridin-2-yl]-4-methanesulfonyl-6-{[(3S)-3-methylpiperidin-1-yl]methyl}-3H-isoindol-1-one; formic acid]"
12,0.1 to 1,"CCNc1cc(C2(Cc3nncn3C)COC2)cc(N2Cc3c(cc(CN4CCC[C@H](C)C4)cc3[S+](C)[O-])C2=O)n1 (stereo partly drawn) [Compound 180, 2-[6-(ethylamino)-4-{3-[(4-methyl-1,2,4-triazol-3-yl)methyl]oxetan-3-yl}pyridin-2-yl]-4-methanesulfinyl-6-{[(3S)-3-methylpiperidin-1-yl]methyl}-3H-isoindol-1-one]"
